Test results from article PMC10698694 (ACS chemical biology, 2023).

How the values were obtained:
Test in all cases: AlphaScreen competition
Assay type in all cases: binding
[1] = target: T1, BRD9 bromodomain (BRD9 BD) (Homo sapiens, UniProt Q9H8M2)
T1 sequence (Q9H8M2 134-239 limits assumed): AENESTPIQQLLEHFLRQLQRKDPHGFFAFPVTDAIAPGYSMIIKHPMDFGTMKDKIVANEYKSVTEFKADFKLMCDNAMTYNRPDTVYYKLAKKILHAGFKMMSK

[2] = target: BPTF bromodomain (BPTF BD) (Homo sapiens, UniProt Q12830)
[3] = target: CECR2 bromodomain (CECR2 BD) (Homo sapiens, UniProt Q9BXF3)

IC50 [1] [nM] | IC50 [2] [nM] | IC50 [3] [nM] | Structure (SMILES)
844 | 146 ± 12 | 24 | CS(=O)(=O)c1nc(NCCCn2cccn2)cc(-c2ccc(OCCCN3CCN(CCCCCCOc4cccc5c4C(=O)N(C4CCC(=O)NC4=O)C5=O)CC3)cc2)n1 (stereo not shown) [compound 8, 4-((6-(4-(3-(4-(6-((3-(1H-Pyrazol-1-yl)propyl)amino)-2-(methylsulfonyl)pyrimidin-4-yl)phenoxy)propyl)piperazin-1-yl)hexyl)oxy)-2-(2,6-dioxopiperidin-3-yl)isoindoline-1,3-dione]
996 | 267 ± 8 | 33 | CS(=O)(=O)c1nc(NCCCn2cccn2)cc(-c2ccc(OCCCN3CCN(CCOCCOCCOc4cccc5c4C(=O)N(C4CCC(=O)NC4=O)C5=O)CC3)cc2)n1 (stereo not shown) [compound 9, 4-(2-(2-(2-(4-(3-(4-(6-((3-(1H-Pyrazol-1-yl)propyl)amino)-2-(methylsulfonyl)pyrimidin-4-yl)phenoxy)propyl)piperazin-1-yl)ethoxy)ethoxy)ethoxy)-2-(2,6-dioxopiperidin-3-yl)-isoindoline-1,3-dione]
– | 360 | – | CN(CCCOc1ccc(-c2cc(NCCCn3cccn3)nc(S(C)(=O)=O)n2)cc1)CCOCCOCCOc1cccc2c1C(=O)N(C1CCC(=O)NC1=O)C2=O (stereo not shown) [compound 10, 4-(2-(2-(2-((3-(4-(6-((3-(1H-Pyrazol-1-yl)propyl)amino)-2-(methylsulfonyl)pyrimidin-4-yl)phenoxy)propyl)(methyl)-amino)ethoxy)ethoxy)ethoxy)-2-(2,6-dioxopiperidin-3-yl)-isoindoline-1,3-dione]
